Data: the supplement of paper PMC11451515

Columns and labels:
NOMO1 = test: AUC of viability dose-response curve (% viability x log10 dose units); higher = less sensitive; details: 48 h
Method in brief: (§1)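 Seeding of medium-adapted leukemia cells was at 500 or 1000 cells/well in 1536-well plates, followed by 48 h at 37°C with library compounds in DMSO at 11 threefold doses from 47 μM to 0.79 nM. CellTiter-Glo One luminescence was normalised per plate to DMSO and cell-free wells and fitted as a four-parameter log-logistic function of log10 dose. Area under the curve was integrated by trapezoidal rule, with curves exceeding full viability scaled and curves failing quality control removed.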

P12-Ichikawa [1] = test: as above; details: 48 h
Method in brief: as §1

SEM cells [2] = test: as above; details: 48 h
Method in brief: as §1

P12-Ichikawa [3] = test: cell viability relative to DMSO control; higher = less cytotoxic; details: HPLM + 10% dialyzed FBS, 48 h
Method in brief: (§2)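 In 1536-well plates, 5 μl of leukemia cells were seeded per well: 500 cells/well for NOMO1 or SEM and 1000 cells/well for P12-Ichikawa. Each line had first been adapted for at least four passages in each medium. Library compounds in DMSO were pin-dosed at 11 threefold concentrations between 47 μM and 0.79 nM, and CellTiter-Glo One luminescence was read after 48 h at 37°C. Viability is a per-plate percentage relative to DMSO wells, with cell-free wells as background.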

SEM cells [4] = test: as above; details: 48 h
Method in brief: as §2

[5] = RPMI 5 mM glucose + 10% dialyzed FBS

In the case of `Cc1ccc(CN2CCNCC2)cc1NC(=O)CNc1ccc(F)c(F)c1`, the “AUC of viability dose-response curve” value (NOMO1; HPLM + 10% dialyzed FBS) is reported as 435, the “AUC of viability dose-response curve” value (NOMO1; RPMI 5 mM glucose + 10% FBS) is reported as 459 and the “AUC of viability dose-response curve” value (NOMO1; [5]) is reported as 444. For the same molecule, the “AUC of viability dose-response curve” value (P12-Ichikawa [1]; HPLM + 10% dialyzed FBS) was 454, the “AUC of viability dose-response curve” value (P12-Ichikawa [1]; RPMI 5 mM glucose + 10% FBS) was 457 and the “AUC of viability dose-response curve” value (P12-Ichikawa [1]; [5]) was 445. For the same molecule, the “AUC of viability dose-response curve” value (SEM cells [2]; HPLM + 10% dialyzed FBS) was 447, the “AUC of viability dose-response curve” value (SEM cells [2]; RPMI 5 mM glucose + 10% FBS) was 464 and the “AUC of viability dose-response curve” value (SEM cells [2]; [5]) was 431.
For `C=CCNC1=C2C[C@@H](C)C[C@H](OC)[C@H](O)[C@@H](C)/C=C(\C)[C@H](OC(N)=O)[C@@H](OC)/C=C\C=C(/C)C(=O)NC(=CC1=O)C2=O`, the “AUC of viability dose-response curve” value (NOMO1; HPLM + 10% dialyzed FBS) was 390, the “AUC of viability dose-response curve” value (NOMO1; RPMI 5 mM glucose + 10% FBS) was 389 and the “AUC of viability dose-response curve” value (NOMO1; [5]) was 385. For the same molecule, the “AUC of viability dose-response curve” value (P12-Ichikawa [1]; HPLM + 10% dialyzed FBS) was 403, the “AUC of viability dose-response curve” value (P12-Ichikawa [1]; RPMI 5 mM glucose + 10% FBS) was 380 and the “AUC of viability dose-response curve” value (P12-Ichikawa [1]; [5]) was 384. For the same molecule, the “AUC of viability dose-response curve” value (SEM cells [2]; HPLM + 10% dialyzed FBS) was 310, the “AUC of viability dose-response curve” value (SEM cells [2]; RPMI 5 mM glucose + 10% FBS) was 285 and the “AUC of viability dose-response curve” value (SEM cells [2]; [5]) was 291.
For `CN(C)NC(=O)CCC(=O)O`, the “AUC of viability dose-response curve” value (NOMO1; HPLM + 10% dialyzed FBS) was 464, the “AUC of viability dose-response curve” value (NOMO1; RPMI 5 mM glucose + 10% FBS) was 467 and the “AUC of viability dose-response curve” value (NOMO1; [5]) was 471. For the same molecule, the “AUC of viability dose-response curve” value (P12-Ichikawa [1]; HPLM + 10% dialyzed FBS) was 464, the “AUC of viability dose-response curve” value (P12-Ichikawa [1]; RPMI 5 mM glucose + 10% FBS) was 464 and the “AUC of viability dose-response curve” value (P12-Ichikawa [1]; [5]) was 466. For the same molecule, the “AUC of viability dose-response curve” value (SEM cells [2]; HPLM + 10% dialyzed FBS) was 468, the “AUC of viability dose-response curve” value (SEM cells [2]; RPMI 5 mM glucose + 10% FBS) was 464 and the “AUC of viability dose-response curve” value (SEM cells [2]; [5]) was 474.
In the case of `Cc1c(O)cccc1C(=O)N[C@@H](CSc1ccccc1)[C@H](O)CN1C[C@H]2CCCC[C@H]2C[C@H]1C(=O)NC(C)(C)C`, the “AUC of viability dose-response curve” value (NOMO1; HPLM + 10% dialyzed FBS) is reported as 465, the “AUC of viability dose-response curve” value (NOMO1; RPMI 5 mM glucose + 10% FBS) is reported as 459 and the “AUC of viability dose-response curve” value (NOMO1; [5]) is reported as 455. The “AUC of viability dose-response curve” value (P12-Ichikawa [1]; HPLM + 10% dialyzed FBS) was 447, the “AUC of viability dose-response curve” value (P12-Ichikawa [1]; RPMI 5 mM glucose + 10% FBS) was 459 and the “AUC of viability dose-response curve” value (P12-Ichikawa [1]; [5]) was 461. The “AUC of viability dose-response curve” value (SEM cells [2]; HPLM + 10% dialyzed FBS) was 426, the “AUC of viability dose-response curve” value (SEM cells [2]; RPMI 5 mM glucose + 10% FBS) was 453 and the “AUC of viability dose-response curve” value (SEM cells [2]; [5]) was 455.
Molecule `CCn1c(-c2nonc2N)nc2cncc(CNC3CCNCC3)c21` has a cell viability (P12-Ichikawa [3]; 0.000781 µM) of 122%, a cell viability (P12-Ichikawa [3]; 0.00234 µM) of 123% and a cell viability (P12-Ichikawa [3]; 0.00702 µM) of 123%. The cell viability (P12-Ichikawa [3]; 0.0211 µM) was 123%, the cell viability (P12-Ichikawa [3]; 0.0632 µM) was 130% and the cell viability (P12-Ichikawa [3]; 0.19 µM) was 129%. It also gave a cell viability (P12-Ichikawa [3]; 0.569 µM) of 117%, a cell viability (P12-Ichikawa [3]; 1.71 µM) of 104% and a cell viability (P12-Ichikawa [3]; 5.12 µM) of 88.6%. For the same molecule, the cell viability (P12-Ichikawa [3]; 15.4 µM) was 10.1%, the cell viability (P12-Ichikawa [3]; 46.1 µM) was 13.7% and the cell viability (SEM cells [4]; HPLM + 10% dialyzed FBS, 0.000781 µM) was 119%. It also gave a cell viability (SEM cells [4]; HPLM + 10% dialyzed FBS, 0.00234 µM) of 121%, a cell viability (SEM cells [4]; HPLM + 10% dialyzed FBS, 0.00702 µM) of 126% and a cell viability (SEM cells [4]; HPLM + 10% dialyzed FBS, 0.0211 µM) of 134%. It also gave a cell viability (SEM cells [4]; HPLM + 10% dialyzed FBS, 0.0632 µM) of 137%, a cell viability (SEM cells [4]; HPLM + 10% dialyzed FBS, 0.19 µM) of 131% and a cell viability (SEM cells [4]; HPLM + 10% dialyzed FBS, 0.569 µM) of 129%. For the same molecule, the cell viability (SEM cells [4]; HPLM + 10% dialyzed FBS, 1.71 µM) was 109%, the cell viability (SEM cells [4]; HPLM + 10% dialyzed FBS, 5.12 µM) was 96.1% and the cell viability (SEM cells [4]; HPLM + 10% dialyzed FBS, 15.4 µM) was 60.7%. For the same molecule, the cell viability (SEM cells [4]; HPLM + 10% dialyzed FBS, 46.1 µM) was 30.8%, the cell viability (SEM cells [4]; RPMI 5 mM glucose + 10% FBS, 0.000781 µM) was 101% and the cell viability (SEM cells [4]; RPMI 5 mM glucose + 10% FBS, 0.00234 µM) was 125%. The cell viability (SEM cells [4]; RPMI 5 mM glucose + 10% FBS, 0.00702 µM) was 124%, the cell viability (SEM cells [4]; RPMI 5 mM glucose + 10% FBS, 0.0211 µM) was 143% and the cell viability (SEM cells [4]; RPMI 5 mM glucose + 10% FBS, 0.0632 µM) was 144%. It also gave a cell viability (SEM cells [4]; RPMI 5 mM glucose + 10% FBS, 0.19 µM) of 152%, a cell viability (SEM cells [4]; RPMI 5 mM glucose + 10% FBS, 0.569 µM) of 120% and a cell viability (SEM cells [4]; RPMI 5 mM glucose + 10% FBS, 1.71 µM) of 61.5%. The cell viability (SEM cells [4]; RPMI 5 mM glucose + 10% FBS, 5.12 µM) was 58.3%, the cell viability (SEM cells [4]; RPMI 5 mM glucose + 10% FBS, 15.4 µM) was 18.9% and the cell viability (SEM cells [4]; RPMI 5 mM glucose + 10% FBS, 46.1 µM) was 15.8%. For the same molecule, the cell viability (SEM cells [4]; RPMI 5 mM glucose + 10% dialyzed FBS, 0.000781 µM) was 123%, the cell viability (SEM cells [4]; RPMI 5 mM glucose + 10% dialyzed FBS, 0.00234 µM) was 126% and the cell viability (SEM cells [4]; RPMI 5 mM glucose + 10% dialyzed FBS, 0.00702 µM) was 113%. The cell viability (SEM cells [4]; RPMI 5 mM glucose + 10% dialyzed FBS, 0.0211 µM) was 131%, the cell viability (SEM cells [4]; RPMI 5 mM glucose + 10% dialyzed FBS, 0.0632 µM) was 118% and the cell viability (SEM cells [4]; RPMI 5 mM glucose + 10% dialyzed FBS, 0.19 µM) was 115%. The cell viability (SEM cells [4]; RPMI 5 mM glucose + 10% dialyzed FBS, 0.569 µM) was 137%, the cell viability (SEM cells [4]; RPMI 5 mM glucose + 10% dialyzed FBS, 1.71 µM) was 110% and the cell viability (SEM cells [4]; RPMI 5 mM glucose + 10% dialyzed FBS, 5.12 µM) was 100%. The cell viability (SEM cells [4]; RPMI 5 mM glucose + 10% dialyzed FBS, 15.4 µM) was 45.2%, the cell viability (SEM cells [4]; RPMI 5 mM glucose + 10% dialyzed FBS, 46.1 µM) was 22.7% and the “AUC of viability dose-response curve” value (NOMO1; HPLM + 10% dialyzed FBS) was 419. The “AUC of viability dose-response curve” value (NOMO1; RPMI 5 mM glucose + 10% FBS) was 437, the “AUC of viability dose-response curve” value (NOMO1; [5]) was 443 and the “AUC of viability dose-response curve” value (P12-Ichikawa [1]; HPLM + 10% dialyzed FBS) was 399. The “AUC of viability dose-response curve” value (P12-Ichikawa [1]; RPMI 5 mM glucose + 10% FBS) was 424, the “AUC of viability dose-response curve” value (P12-Ichikawa [1]; [5]) was 411 and the “AUC of viability dose-response curve” value (SEM cells [2]; HPLM + 10% dialyzed FBS) was 414. For the same molecule, the “AUC of viability dose-response curve” value (SEM cells [2]; RPMI 5 mM glucose + 10% FBS) was 357 and the “AUC of viability dose-response curve” value (SEM cells [2]; [5]) was 417.
